Assay results taken from ChEMBL document CHEMBL1138848, “Tetrahydrobiopterin binding to aromatic amino acid hydroxylases. Ligand recognition and specificity” (J Med Chem, 2004).

How the values were obtained:
[1] = target: T1, Phenylalanine-4-hydroxylase (Homo sapiens, UniProt P00439); experiment: Inhibitory concentration against human phenylalanine hydroxylase
T1 sequence (P00439 whole entry): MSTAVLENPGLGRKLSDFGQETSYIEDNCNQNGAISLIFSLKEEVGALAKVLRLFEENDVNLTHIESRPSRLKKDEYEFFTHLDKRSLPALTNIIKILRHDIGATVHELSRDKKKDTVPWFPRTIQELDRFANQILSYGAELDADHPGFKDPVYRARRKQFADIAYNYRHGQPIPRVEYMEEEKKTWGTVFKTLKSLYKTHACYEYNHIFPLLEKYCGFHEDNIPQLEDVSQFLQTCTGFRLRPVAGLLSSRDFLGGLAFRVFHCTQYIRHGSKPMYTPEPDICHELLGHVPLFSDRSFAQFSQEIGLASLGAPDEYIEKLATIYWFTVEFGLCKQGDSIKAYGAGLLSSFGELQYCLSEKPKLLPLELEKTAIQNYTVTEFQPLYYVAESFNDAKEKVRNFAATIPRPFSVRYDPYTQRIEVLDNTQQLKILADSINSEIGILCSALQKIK

[2] = target: T1, Phenylalanine-4-hydroxylase; experiment: Binding affinity for human phenylalanine hydroxylase

**Q.** Which IC50 [1] does the source give for `CC(O)C(O)C1CNc2c(nc(N)[nH]c2=O)N1` (configuration not stated) here?
**A.** 1 µM

**Q.** And the Ki [2]?
**A.** 7 µM
